Assay results taken from paper PMC4961458 (eLife, 2016).

Experiments:
[1] = target: T1, PR-A (Homo sapiens, UniProt P06401); test: PR-A transcriptional reporter assay, agonist mode (HEPG2 cells); type: cell-based; parameters: subcloning full-length PRa into pCMX; expressed in transfected cells; host or cells: HEPG2; conditions: % of maximal R5020-stimulated activity
T1 sequence (P06401 1-769 isoform P06401-2): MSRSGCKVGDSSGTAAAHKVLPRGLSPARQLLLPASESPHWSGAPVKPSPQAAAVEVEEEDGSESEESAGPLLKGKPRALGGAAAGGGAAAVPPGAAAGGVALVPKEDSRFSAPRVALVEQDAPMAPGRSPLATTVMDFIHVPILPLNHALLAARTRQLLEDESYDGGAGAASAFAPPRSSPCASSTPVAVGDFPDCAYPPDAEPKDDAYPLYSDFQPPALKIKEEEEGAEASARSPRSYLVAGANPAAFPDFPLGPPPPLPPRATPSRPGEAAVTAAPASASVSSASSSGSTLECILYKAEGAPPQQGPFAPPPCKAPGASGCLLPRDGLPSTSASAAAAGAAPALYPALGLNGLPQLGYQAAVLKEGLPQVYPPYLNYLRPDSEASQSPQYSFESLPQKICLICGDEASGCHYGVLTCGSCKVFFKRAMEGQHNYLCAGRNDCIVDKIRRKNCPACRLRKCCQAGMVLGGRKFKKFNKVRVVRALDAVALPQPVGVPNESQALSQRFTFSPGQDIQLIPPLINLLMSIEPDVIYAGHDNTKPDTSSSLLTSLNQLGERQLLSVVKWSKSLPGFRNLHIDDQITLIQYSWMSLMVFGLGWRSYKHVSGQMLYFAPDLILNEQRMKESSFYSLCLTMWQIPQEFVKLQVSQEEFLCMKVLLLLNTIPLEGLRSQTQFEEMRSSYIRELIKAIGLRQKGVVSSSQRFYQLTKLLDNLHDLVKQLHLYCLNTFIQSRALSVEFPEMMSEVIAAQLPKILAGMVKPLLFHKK
Description: Transcriptional assays were performed by seeding 100 μL of cells at a density of 250,000 cells/mL into 96-well cell culture plates in RPMI 1640 supplemented with 5% charcoal-stripped serum and allowed to attach overnight. […] Triplicate transfections were performed using 418 ng reporter vector (2X PRE-Luciferase for PR-A and PR-B, MMTV-Luciferase for MR), 50 ng CMVpRL (normalization vector), 10 ng NHR expression vector (CMX-PR-A, pCDNA-PR-B or 6R-MR), and 0.7 μL lipofectin. […] The final agonist concentration used in the antagonist assays was 1 nM. Following 24 hr incubation, the medium was removed and the cells were lysed in 40 μL of lysis buffer (25 mM Tris Phosphate, 2 mM CDTA, 10% Glycerol, 0.5% Triton X-100, 2 mM DTT). Firefly luciferase activity was measured immediately following the addition of 40 μL luciferase buffer (20 mM tricine, 0.1 mM EDTA, 1.07 mM (MgCO3)4 Mg(OH)2· 5H2O, 2.67 mM MgSO4, 33.3 mM DTT, 270 μM Coenzyme A, 470 μM luciferin, 530 μM ATP).

[2] = tested on: TamR1 tumors; test: Tamoxifen-resistant MCF7 (TamR1) xenograft efficacy; type: in vivo, mice; conditions: 0.18 mg 60 day E2 pellets; tamoxifen 120 mg/kg/day p.o.; fulvestrant 200 mg/kg 3x/week s.c.; GDC-0810 10, 30 or 100 mg/kg/day p.o.; 27 days
Description: We previously generated a tamoxifen-resistant xenograft model, TamR1, by chronically treating MCF7 tumor bearing mice with tamoxifen until a resistant tumor emerged ([Lai et al., 2015]). […] These experiments were conducted in mice with relatively high levels of circulating estradiol, with estradiol being delivered via 0.72 mg 60 day release E2 pellets that are reported by the manufacturer (Innovative Research) to deliver between 300 and 400 pg/ml estradiol. Under these conditions the high E2 reduces the steady state ERα protein levels, thus confounding the readout of ERα protein as a pharmacodynamic endpoint (Figure 5—figure supplement 1). […] These pellets are sufficient to support tumor growth but only modestly reduce ERα levels (Figure 5—figure supplement 1).
Figure 5. […] (A) Tamoxifen-resistant MCF7 tumors were implanted in animals supplemented with 60-day release 0.18 mg 17β-estradiol pellets. […] S.c. is sub-cutaneous dosing, and p.o. is per os (by mouth) oral gavage dosing. * Denotes significance (p<0.05) compared to Vehicle in 1-Way ANOVA and Dunnett's Multiple Comparison Test. Figure 5—figure supplement 1. Effects of estradiol pellet on ERα levels in MCF7-TamR1 xenograft tumors. TamR1 tumor fragments were implanted into Crl:NU-Foxn1^nu mice implanted with either 0.72 or 0.18 mg/60 day 17-β estradiol pellets. Once tumors were established pellets were removed from 1 group. 28 days after pellet removal ERα protein levels were determined for 4 tumors from each group. Data is presented as average compared to Vehicle (-E2). Error is standard deviation. * Denotes significance (p<0.05) compared to Vehicle (-E2) by T-test. [drawing 7] […] (A) ERα protein levels were determined by western blot analysis of tumors 8 hr following the final compound treatment on day 27. […] KI-67 expression, quantified from IHC analysis. […]
The tamoxifen-resistant derivative of the ER+ human tumor cell line, MCF7 (TamR1) was developed by Seragon Pharmaceuticals, Inc ([Lai et al., 2015]). […] The tumors which continued to grow under these conditions were serially passaged and evaluated for continued tamoxifen resistance. […]

CC/C(=C(\c1ccc(O)cc1)c1ccc(OCCN(C)C)cc1)c1ccccc1 [4-OH Tam, 4-hydroxytamoxifen]
Emax [1]: 0.04 ± 0.06%

CC/C(=C(/c1ccc(/C=C/C(=O)O)cc1)c1ccc2[nH]ncc2c1)c1ccc(F)cc1Cl [GDC-0810]
Tumor growth response, TamR1 xenograft, lower E2 [2]: induced regression at all doses tested | Emax [1]: 6.68 ± 7.97%

C[C@]12CC[C@@H]3c4ccc(O)cc4C[C@@H](CCCCCCCCC[S+]([O-])CCCC(F)(F)C(F)(F)F)[C@H]3[C@@H]1CC[C@@H]2O (stereo partly shown) [Fulvestrant]
Tumor growth response, TamR1 xenograft, lower E2 [2]: resulted in regression of TamR1 tumors
